Assay results from ChEMBL document CHEMBL4422690, “Synthesis of Rosmarinic Acid Amides as Antioxidative and Hypoglycemic Agents” (J Nat Prod, 2019).

What was measured:
[1] = Mixed-type inhibition of yeast alpha-glucosidase assessed as […] dissociation constant using varying levels of pNP-alpha-G as substrate incubated for 30 mins and measured at 1 min interval for 30 mins by Lineweaver-burk plot analysis; set-up: species or system Saccharomyces cerevisiae
[2] = Antioxidant activity assessed as DPPH radical scavenging activity incubated for 1.5 hrs under dark condition by spectrometric method; assay type: functional
[3] = Inhibition of yeast alpha-glucosidase using pNP-alpha-G as substrate measured after 30 mins; set-up: species or system Saccharomyces cerevisiae
[4] = Mixed-type inhibition of yeast alpha-glucosidase assessed as enzyme-substrate-inhibitor dissociation constant using varying levels of pNP-alpha-G as substrate incubated for 30 mins and measured at 1 min interval for 30 mins by Lineweaver-burk plot analysis; set-up: species or system Saccharomyces cerevisiae
[5] = Antioxidant activity assessed as trolox equivalents of AAPH radical scavenging activity at 50 uM preincubated for 10 mins followed by AAPH addition and measured every min for 30 mins by ORAC-FL assay; assay type: functional

| Structure (SMILES) | Ki [1] | IC50 [2] | IC50 [3] | Ki [4] | Activity [5] |
| --- | --- | --- | --- | --- | --- |
| CN1CCN(CCNC(=O)[C@@H](Cc2ccc(O)c(O)c2)OC(=O)/C=C/c2ccc(O)c(O)c2)CC1 | 22.8 µM | 9.7 µM | 35.2 µM | 34.8 µM | 2.77 µMequiv/µM |
| O=C(/C=C/c1ccc(O)c(O)c1)O[C@H](Cc1ccc(O)c(O)c1)C(=O)NCCc1ccccc1 |  | 10.4 µM | 87.7 µM |  | 3.07 µMequiv/µM |
| Cc1ccc(CNC(=O)[C@@H](Cc2ccc(O)c(O)c2)OC(=O)/C=C/c2ccc(O)c(O)c2)cc1 |  | 10.1 µM | 109 µM |  | 2.62 µMequiv/µM |
| CC(C)CNC(=O)[C@@H](Cc1ccc(O)c(O)c1)OC(=O)/C=C/c1ccc(O)c(O)c1 |  | 11.9 µM | 108 µM |  | 2.15 µMequiv/µM |
| O=C(/C=C/c1ccc(O)c(O)c1)O[C@H](Cc1ccc(O)c(O)c1)C(=O)NCCN1CCCCC1 |  | 10.1 µM | 53.3 µM |  | 2.84 µMequiv/µM |
| O=C(/C=C/c1ccc(O)c(O)c1)O[C@H](Cc1ccc(O)c(O)c1)C(=O)NCCc1ccc(O)cc1 |  | 7.1 µM | 74.9 µM |  | 3.28 µMequiv/µM |
| CN(C)CCCNC(=O)[C@@H](Cc1ccc(O)c(O)c1)OC(=O)/C=C/c1ccc(O)c(O)c1 |  | 9.3 µM | 65.5 µM |  | 2.64 µMequiv/µM |
| C[C@H]1O[C@H](O[C@H]2[C@H](O)[C@@H](O)[C@@H](O[C@H]3[C@H](O)[C@@H](O)C(O)O[C@@H]3CO)O[C@@H]2CO)[C@H](O)[C@@H](O)[C@@H]1N[C@H]1C=C(CO)[C@@H](O)[C@H](O)[C@H]1O (stereo partly drawn) [ACARBOSE] |  |  | 269 to 285 µM |  |  |
| CCCCNC(=O)[C@@H](Cc1ccc(O)c(O)c1)OC(=O)/C=C/c1ccc(O)c(O)c1 |  | 8.3 µM | 106 µM |  | 2.72 µMequiv/µM |
| O=c1c(O)c(-c2ccc(O)c(O)c2)oc2cc(O)cc(O)c12 [QUERCETIN] |  | 15.6 to 16.8 µM |  |  | 2.11 to 2.19 µMequiv/µM |
| CCN(CC)CCCNC(=O)[C@@H](Cc1ccc(O)c(O)c1)OC(=O)/C=C/c1ccc(O)c(O)c1 |  | 8.9 µM | 42.3 µM |  | 2.81 µMequiv/µM |
| O=C(/C=C/c1ccc(O)c(O)c1)O[C@H](Cc1ccc(O)c(O)c1)C(=O)O [ROSMARINIC ACID] |  | 11 µM | 134 µM |  | 2.1 µMequiv/µM |
| O=C(/C=C/c1ccc(O)c(O)c1)O[C@H](Cc1ccc(O)c(O)c1)C(=O)NCc1ccccc1 |  | 8.2 µM | 111 µM |  | 2.79 µMequiv/µM |
